Patent US20090041823A1, “Agent-releasing Vascular Prosthesis” (priority 2003, published 2009)

Tested on: intimal hyperplasia
Test: Patch plasty implantation at the iliac bifurcation, animal model
Type: in vivo, mini-pigs of the Gottingen type
Procedure: In a last step the prostheses were implanted in a preliminary animal trial in order to show the impact on intimal hyperplasia. Six mini-pigs of the Gottingen type were used as test animals. The Aa iliacae was prepared by a transperitonial access under general i.v. anaesthesia (Thiopental®) and each a multifunctional and a standard prosthesis were introduced into every animal. All animals obtained an antibiotic prophylaxis (Spizef®) and were anticoagulized with heparin.
As medicaments each of paclitaxel, sirolimus and IS was used twice. We have applied patch plasties as the border line between prosthesis and artery is bigger compared to end-to-end anastomoses and we could thus assess intimal hyperplasia in cross-section very well. The animals were again subjected to surgery after six weeks and the iliac bifurcation was explanted. Samples in longitudinal direction were derived from the patch plastics in the proximal and in the distal region, respectively, and samples in transversal direction were derived from the medium region. These samples were fixed in formaldehyde. The further processing comprised dehydration in an increasing alcohol series until embedding into paraffin. The preparations were cut and stained in HE and Tri-PAS. Apart from the extent of IH, also integration and inflammatory reactions were assessed.

integration of the prosthesis (explanted after 6 weeks): well integrated from outside
Structure (SMILES): CC(=O)O[C@H]1C(=O)[C@@]2(C)[C@H]([C@H](OC(=O)c3ccccc3)[C@]3(O)C[C@H](OC(=O)[C@H](O)[C@@H](NC(=O)c4ccccc4)c4ccccc4)C(C)=C1C3(C)C)[C@]1(OC(C)=O)CO[C@@H]1C[C@@H]2O [paclitaxel]
endothelialization (patch plasty, explanted after six weeks): complete suppression of endothelialization
